The structures appear in SMILES notation.

Results on 41 compounds are retold here after patent US5914236A, “PCT-65 serotonin receptor” (United States of America, priority 1995, dated 1999).

The target of assay [1] is T1, PCT-65 receptor (Rattus norvegicus, UniProt P32305).
T1 construct: expressed in transfected cells; host or cells: COS-7 cells (transient, calcium phosphate, pSRα-65)
Description: [3H]-5-HT competition binding to PCT-65 receptor in membranes of transfected COS-7 cells. The note with it: competing with [3H]-5-HT (1 nM), COS-7 membranes, 37 °C; geometric mean ± SEM (n=3). How it is done: (§1) This plasmid construct (pSRα-65) was introduced into COS-7 cells by calcium phosphate-mediated transfection.
Specifically, transfected cells were scraped into PBS with 5 mM EDTA, spun, polytroned, spun, suspended in 100 mM Tris, 20 mM MgSO4, 1 mM EDTA, pH7.7. 0.5 ml of this solution containing 10-25 μg protein was added to 0.5 ml of a 2 mM ascorbic acid solution containing the ligand and drugs and incubated for 30 min at 37° C. Filtration was performed on GF/C paper (0.1% PEI solution pre-treatment) with a 10 ml rinse.

Assay [2] concerns the target T1, PCT-65 receptor. Description: [3H]-LSD competition binding to PCT-65 receptor in membranes of transfected COS-7 cells. Conditions: for Ki: competing with [3H]-LSD (1.5-2.2 nM), COS-7 membranes, pH 7.4, 37 °C, 60 min, geometric mean ± SEM (n=3).
Excerpt: as §1

For assay [3], the target named is T1, PCT-65 receptor. Description: Competition binding to PCT-65 receptor (radioligand not specified). Conditions: for affinity for PCT-65 (in words): expressed in mammalian cells (COS-7).
The next assay relates to 5HT1A receptors. Conditions: background; cited from earlier work.
Setting [4] is: radioligand not given, read-out: Ki (compounds not in Table 1).

T1 sequence (P32305 45-448): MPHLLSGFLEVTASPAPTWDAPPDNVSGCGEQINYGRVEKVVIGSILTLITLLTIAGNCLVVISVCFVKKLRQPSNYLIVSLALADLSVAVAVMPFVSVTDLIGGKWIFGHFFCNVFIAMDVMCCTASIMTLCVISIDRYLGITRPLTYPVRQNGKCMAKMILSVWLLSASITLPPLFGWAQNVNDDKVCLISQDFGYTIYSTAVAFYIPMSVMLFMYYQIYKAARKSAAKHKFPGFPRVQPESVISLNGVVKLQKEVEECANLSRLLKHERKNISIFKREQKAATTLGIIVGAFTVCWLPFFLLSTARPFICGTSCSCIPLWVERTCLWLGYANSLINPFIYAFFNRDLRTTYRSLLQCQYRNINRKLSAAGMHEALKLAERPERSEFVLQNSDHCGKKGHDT

Consider `c1ccc2c(N3CCNCC3)cccc2c1` [1(1-Napthyl)piperazine], for which the Ki (as a rule, the dissociation constant of the complex between target and ligand, obtained from inhibition or displacement) at PCT-65 receptor [1] amounted to 18.4 ± 0.77 nM; on PCT-65 receptor [2], 33.8 ± 1.68 nM.
On to `COc1ccccc1N1CCNCC1` [2-MPP], for which the values for the Ki at PCT-65 receptor [1] and on PCT-65 receptor [2] were 125 ± 8.4 nM and 244 ± 16.5 nM, respectively.
Regarding `NCCc1c[nH]c2ccc(C(N)=O)cc12` [5-Carboxamidotryptamine], the Ki at PCT-65 receptor [1] is 0.16 ± 0.05 nM; at PCT-65 receptor [2], 0.33 ± 0.01 nM.
As to `NCCc1c[nH]c2ccc(O)cc12` [5-Hydroxytryptamine, 5-hydroxytryptamine], the “affinity for PCT-65 (in words)” value on PCT-65 receptor [3] was “high affinity”.
As to `COc1ccc2[nH]cc(CCN(C)C)c2c1` [5-Methoxy-N,N-dimethytryptamine], the results for the Ki on PCT-65 receptor [1] and at PCT-65 receptor [2] were 8.26 ± 0.73 nM and 20.9 ± 0.86 nM, respectively.
As to `CCCN(CCC)C1CCc2cccc(O)c2C1` (stereo not drawn) [8-OH-DPAT], the “affinity for PCT-65 (in words)” value at PCT-65 receptor [3] was “relatively low affinity”. For the same compound, the inhibition constant (Ki) on PCT-65 receptor [1] was 35 ± 5.62 nM; on PCT-65 receptor [2] it was 35.4 ± 5.24 nM.
Regarding `CN(C)CCC=C1c2ccccc2CCc2ccccc21` [Amitriptyline], the results for the Ki on PCT-65 receptor [3], at PCT-65 receptor [1] and at PCT-65 receptor [2] were less than 100 nM, 92.8 ± 15.8 nM and 124 ± 13.4 nM, respectively. For the same compound, the “affinity for PCT-65 (in words)” value at PCT-65 receptor [3] is listed as “high affinity”.
As for `CCn1c(=O)n(C(=O)NC2CC3CCC(C2)N3C)c2ccccc21` (stereo not drawn) [BIMU1], on PCT-65 receptor [3] (setting [4]), the Ki is greater than 1300 nM.
As for `CC(C)n1c(=O)n(C(=O)NC2CC3CCC(C2)N3C)c2ccccc21` (stereo not drawn) [BIMU8], the Ki on PCT-65 receptor [3] was greater than 1300 nM.
In the case of `COc1cc(N)c(Cl)cc1C(=O)NC1CCN2CCCC1C2` (stereo not drawn) [BRL24294], on PCT-65 receptor [3] (setting [4]), the Ki is greater than 1300 nM.
`CN1C2CCCC1CC(NC(=O)c1nn(C)c3ccccc13)C2` (stereo not drawn) [BRL43694]: the Ki at PCT-65 receptor [3] (setting [4]) was greater than 1300 nM.
Take `CC(C)C[C@H]1C(=O)N2CCC[C@H]2[C@]2(O)O[C@](NC(=O)[C@@H]3C=C4c5cccc6[nH]c(Br)c(c56)C[C@H]4N(C)C3)(C(C)C)C(=O)N12` [Bromocriptine]: the Ki on PCT-65 receptor [1] is 48.8 ± 7.9 nM; at PCT-65 receptor [2] it was 10.7 ± 0.47 nM.
`CN(C)CCCC1(c2ccc(F)cc2)OCc2cc(C#N)ccc21` (stereo not drawn) [Citalopram] registered a Ki on PCT-65 receptor [3] greater than 1300 nM.
As for `CN1C2CCC1CC(NC(=O)n1c(=O)[nH]c3ccccc31)C2` (stereo not drawn) [DAU6215], at PCT-65 receptor [3] (setting [4]), the Ki was greater than 1300 nM.
`CNCCCN1c2ccccc2CCc2ccccc21` [Desipramine] had a Ki on PCT-65 receptor [3] greater than 1300 nM.
Turning to `NCCc1ccc(O)c(O)c1` [Dopamine], the inhibitory constant (Ki) on PCT-65 receptor [3] (setting [4]) was greater than 1300 nM.
Compound `CCNC(C)Cc1cccc(C(F)(F)F)c1` (stereo not drawn) [Fenflurmine] registered an inhibitory constant (Ki) on PCT-65 receptor [3] greater than 1300 nM.
Take `NCCc1c[nH]cn1` [Histamine]: the Ki at PCT-65 receptor [3] (setting [4]) was greater than 1300 nM.
`c1ccc2c(c1)OCC(C1=NCCN1)O2` (stereo not drawn) [Idazoxan]: on PCT-65 receptor [3] (setting [4]), the Ki is greater than 1300 nM.
Take `O=C(c1ccc(F)cc1)C1CCN(CCn2c(=O)[nH]c3ccccc3c2=O)CC1` [Ketanserin]: the Ki is 265 ± 32.1 nM on PCT-65 receptor [1] and 207 ± 19.6 nM at PCT-65 receptor [2].
Consider `CCN(CC)C(=O)[C@@H]1C=C2c3cccc4[nH]cc(c34)C[C@H]2N(C)C1` [LSD], for which the “affinity for PCT-65 (in words)” value at PCT-65 receptor [3] is “relatively high affinity”.
`CN1C2CCC1CC(NC(=O)c1nn(C)c3ccccc13)C2` (stereo not drawn) [LY-278584] gave a Ki at PCT-65 receptor [3] greater than 1300 nM.
Turning to `CN1CCN(C2=Nc3ccccc3Oc3ccc(Cl)cc32)CC1` [Loxapine], the “affinity for PCT-65 (in words)” value at PCT-65 receptor [3] was “low affinity”; at PCT-65 receptor [3] (listed as loxipine), “high affinity”. For the same compound, the Ki on PCT-65 receptor [1] was 133 ± 36.1 nM; at PCT-65 receptor [2], 172 ± 7.8 nM.
On to `CN1[C@@H]2CC[C@H]1C[C@@H](OC(=O)c1cc(Cl)cc(Cl)c1)C2` [MDL7222], for which the Ki on PCT-65 receptor [3] (setting [4]) is greater than 1300 nM.
With `COc1ccc2[nH]cc(CCNC(C)=O)c2c1` [Melotonin], on PCT-65 receptor [3], the Ki was greater than 1300 nM.
Consider `CN1C[C@@H](NS(=O)(=O)N(C)C)C[C@@H]2c3cccc4c3c(cn4C)C[C@H]21` [Mesulergine], for which the “affinity for PCT-65 (in words)” value at PCT-65 receptor [3] was “relatively high affinity”. Besides, the Ki came to 21.1 ± 2.19 nM on PCT-65 receptor [1] and 7.13 ± 0.39 nM at PCT-65 receptor [2].
With `CN1C[C@H](CNC(=O)OCc2ccccc2)C[C@@H]2c3cccc4c3c(cn4C)C[C@H]21` [Metergoline], the Ki at PCT-65 receptor [1] stood at 6.21 ± 1 nM; at PCT-65 receptor [2] it was 2.04 ± 0.15 nM. Moreover, on PCT-65 receptor [2] (relative to competition with [3H]-5-HT), the “potency in competition with [3H]-LSD compared with [3H]-5-HT (in words)” value is reported as “somewhat greater potency”.
As to `CC[C@@H](CO)NC(=O)[C@@H]1C=C2c3cccc4c3c(cn4C)C[C@H]2N(C)C1` [Methysergide], the Ki at PCT-65 receptor [1] amounted to 13.4 ± 0.8 nM; on PCT-65 receptor [2], 12.6 ± 0.84 nM.
With `COc1ccccc1N1CCN(CCCCN2C(=O)c3ccccc3C2=O)CC1` [NAN-190], the Ki on PCT-65 receptor [3] (setting [4]) was greater than 1300 nM.
As to `NCC(O)c1ccc(O)cc1` (stereo not drawn) [Octopamine], the Ki on PCT-65 receptor [3] was greater than 1300 nM.
In the case of `CCCN1C[C@H](CSC)C[C@@H]2c3cccc4[nH]cc(c34)C[C@H]21` [Pergolide], the “affinity for PCT-65 (in words)” value at PCT-65 receptor [3] is recorded as “relatively high affinity”. Besides, the Ki on PCT-65 receptor [1] is 1.01 ± 0.03 nM; at PCT-65 receptor [2] it was 4.78 ± 0.18 nM.
Consider `CC(C)NCC(O)COc1cccc2[nH]ccc12` (stereo not drawn) [Pindolol], for which the Ki at PCT-65 receptor [3] was greater than 1300 nM.
On to `c1ccc2nc(N3CCNCC3)ccc2c1` [Quipazine], for which the Ki on PCT-65 receptor [3] (setting [4]) is greater than 1300 nM.
On to `Cc1nc2sccn2c(=O)c1CCN1CCC(=C(c2ccc(F)cc2)c2ccc(F)cc2)CC1` [Ritanserin], for which the Ki at PCT-65 receptor [1] worked out at 15 ± 3.4 nM; on PCT-65 receptor [2], 21.7 ± 2.1 nM.
Consider `CNS(=O)(=O)Cc1ccc2[nH]cc(CCN(C)C)c2c1` [Sumatriptan], for which affinity at PCT-65 receptor [1] was put at a Ki of 251 ± 36.1 nM.
As for `FC(F)(F)c1cccc(N2CCNCC2)c1` [TFMPP], the Ki on PCT-65 receptor [1] was determined as 236 ± 5.5 nM; at PCT-65 receptor [2] it was 533 ± 33 nM.
The matching figures for `NCCc1c[nH]c2ccccc12` [Tryptamine]: 16.4 ± 1.01 nM and 32.9 ± 0.76 nM.
`COc1cc(N)c(Cl)cc1C(=O)NC1CN2CCC1CC2` (stereo not drawn) [Zacopride]: the Ki at PCT-65 receptor [3] (setting [4]) is greater than 1300 nM.
Turning to `CC1(C)CC(=O)N(CCCCN2CCN(c3ncccn3)CC2)C(=O)C1` [gepirone], the “affinity for 5HT1A receptors in the brain (in words)” value with 5HT1A receptors is given as “high affinities”.
On to `O=C1c2ccccc2S(=O)(=O)N1CCCCN1CCN(c2ncccn2)CC1` [ipsapirone], for which the “affinity for 5HT1A receptors in the brain (in words)” value with 5HT1A receptors is reported as “high affinities”.
In the case of `Clc1cccc(N2CCNCC2)c1` [mCPP], the figures for the Ki at PCT-65 receptor [1] and on PCT-65 receptor [2] were 256 ± 9.9 nM and 352 ± 54.9 nM, respectively.
